Data as given in article PMC5552880, “The Bitter Taste Receptor TAS2R16 Achieves High Specificity and Accommodates Diverse Glycoside Ligands by using a Two-faced Binding Pocket” (Scientific Reports, 2017).
Substitutions are numbered along the chain they refer to.

Tests used:
[1] = test system: TAS2R16; settings: read-out: EC50, reported value; cited from earlier work
[2] = target: T1, Q60R TAS2R16 (Homo sapiens, UniProt Q9NYV7, Q60R); test: Ca2+ flux assay, mutation library clone Q60R; type: cell-based; settings: 3 mM salicin, mean (range, max-min), n=3
T1 construct: V5; expressed in transfected cells; host or cells: HEK-293T
Description: (§1) The TAS2R16 mutation library was tested for function using a Ca^2+ flux assay as described previously. Later screens of individual TAS2R16 mutant clones used 4-nitrophenyl-β-D-glucopyranoside. Briefly, HEK-293T cells, in poly-lysine coated, black 384-well plates with clear bottoms (Costar), were transfected with the TAS2R16 mutation library, and a plasmid expressing a Gα16 chimera containing the last 44 amino acids of rat gustducin (Gα16gust44). Cells were incubated for 22 hours at 37 °C then washed twice with a calcium indicator dye in HBSS containing 20 mM HEPES (Calcium 4 Assay kit, Molecular Devices), incubated with HBSS for 1.5 hr, then moved to a Flexstation II-384 (Molecular Devices) set at 32 °C. […] Concentrations for mutation library screening were chosen to be approximately 2 to 3 times higher than the EC50 values for the ligands to maximize the sensitivity of detecting decreases in signaling due to the mutation in each clone.
(§2) For Ca^2+ flux assays, the value of fluorescence at 30 seconds after ligand addition (the time of peak signal for wild-type TAS2R16) was used as the maximum value. […] Data sets were analyzed and represented as percentage over baseline signal. Mean and standard deviation values were calculated for each clone from replicate assay data.

[3] = target: T2, L191R TAS2R16 (Homo sapiens, UniProt Q9NYV7, L191R); test: Ca2+ flux assay, mutation library clone L191R; type: cell-based; settings: 3 mM salicin, mean (range, max-min), n=3
T2 construct: Each construct in the mutation library was tested for full-length TAS2R16 translation; V5; expressed in transfected cells; host or cells: HEK-293T
Description: as §1, §2

[4] = target: T3, W261A TAS2R16 (Homo sapiens, UniProt Q9NYV7, W261A); test: Ca2+ flux assay, W261A TAS2R16 variant; type: cell-based
T3 construct: FLAG (N); expressed in transfected cells; host or cells: HEK-293T
T3 sequence (Q9NYV7 1-291 W261A): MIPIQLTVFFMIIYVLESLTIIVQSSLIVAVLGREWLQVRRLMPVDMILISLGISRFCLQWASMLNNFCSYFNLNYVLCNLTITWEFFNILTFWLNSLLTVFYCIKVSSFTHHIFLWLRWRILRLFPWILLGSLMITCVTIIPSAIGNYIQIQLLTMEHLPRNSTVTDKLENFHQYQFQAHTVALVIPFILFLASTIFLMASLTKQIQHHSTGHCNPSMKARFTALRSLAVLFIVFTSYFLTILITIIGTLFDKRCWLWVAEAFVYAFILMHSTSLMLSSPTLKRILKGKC
Description: as §1
(§3) For Ca^2+ flux assays, the value of fluorescence at 30 seconds after ligand addition (the time of peak signal for wild-type TAS2R16) was used as the maximum value. […] Raw data obtained from surface expression and flux experiments were normalized to the values for wild-type TAS2R16 on each plate. Data sets were analyzed and represented as percentage over baseline signal. Mean and standard deviation values were calculated for each clone from replicate assay data.
Ligand dose-response data was analyzed with Graphpad Prism 5 software. Data was baseline subtracted and then fit using a sigmoidal dose-response (variable slope) equation.

[5] = target: T4, S228T TAS2R16 (Homo sapiens, UniProt Q9NYV7, S228T); test: Ca2+ flux assay, mutation library clone S228T; type: cell-based; settings: library screening concentrations
T4 construct: FLAG (N); expressed in transfected cells; host or cells: HEK-293T
T4 sequence (Q9NYV7 1-291 S228T): T3 sequence (Q9NYV7 1-291 W261A) with S228T, A261W
Description: as §1, §3

T2 sequence (Q9NYV7 whole entry L191R): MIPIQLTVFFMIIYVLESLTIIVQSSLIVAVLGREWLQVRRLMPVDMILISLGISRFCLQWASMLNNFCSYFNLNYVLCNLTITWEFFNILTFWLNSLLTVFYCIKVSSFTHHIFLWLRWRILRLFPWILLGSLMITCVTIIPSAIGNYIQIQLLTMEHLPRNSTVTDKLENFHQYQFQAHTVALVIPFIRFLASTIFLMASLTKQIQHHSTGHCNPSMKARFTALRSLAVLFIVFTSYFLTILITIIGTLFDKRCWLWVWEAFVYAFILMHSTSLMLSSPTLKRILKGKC
T1 sequence (Q9NYV7 whole entry Q60R): as the sequence (Q9NYV7 whole entry L191R) above, with Q60R, R191L counted along it

Ca2+ flux in response to salicin [2]: 4 (7) % of wild-type
Ca2+ flux in response to salicin [3]: 1 (3) % of wild-type
EC50 ([4]; Fig. 5b dose-response, W261A TAS2R16): ~13.4 mM
activation of W261A variant ([4]; W261A TAS2R16, relative to wild-type): eliminated activation
Ca2+ flux signaling value [5]: 90 % of wild-type
Compound: OCc1ccccc1O[C@@H]1O[C@H](CO)[C@@H](O)[C@H](O)[C@H]1O [salicin]
EC50 [1]: 3 mM
